This is an account of results in patent US7326721B2 (Hypnion, Inc., priority 2003, dated 2008).

Where two headings read alike, the source gives them in different places.

Data set [1] deals with adult male Wistar rats. Briefly: SCORE-2000 sleep-wakefulness, locomotor activity and body temperature monitoring. The format is in vivo, rat.
Data set [2] has as its target hERG (Homo sapiens, UniProt Q12809).

Sequence of hERG (Q12809 whole entry): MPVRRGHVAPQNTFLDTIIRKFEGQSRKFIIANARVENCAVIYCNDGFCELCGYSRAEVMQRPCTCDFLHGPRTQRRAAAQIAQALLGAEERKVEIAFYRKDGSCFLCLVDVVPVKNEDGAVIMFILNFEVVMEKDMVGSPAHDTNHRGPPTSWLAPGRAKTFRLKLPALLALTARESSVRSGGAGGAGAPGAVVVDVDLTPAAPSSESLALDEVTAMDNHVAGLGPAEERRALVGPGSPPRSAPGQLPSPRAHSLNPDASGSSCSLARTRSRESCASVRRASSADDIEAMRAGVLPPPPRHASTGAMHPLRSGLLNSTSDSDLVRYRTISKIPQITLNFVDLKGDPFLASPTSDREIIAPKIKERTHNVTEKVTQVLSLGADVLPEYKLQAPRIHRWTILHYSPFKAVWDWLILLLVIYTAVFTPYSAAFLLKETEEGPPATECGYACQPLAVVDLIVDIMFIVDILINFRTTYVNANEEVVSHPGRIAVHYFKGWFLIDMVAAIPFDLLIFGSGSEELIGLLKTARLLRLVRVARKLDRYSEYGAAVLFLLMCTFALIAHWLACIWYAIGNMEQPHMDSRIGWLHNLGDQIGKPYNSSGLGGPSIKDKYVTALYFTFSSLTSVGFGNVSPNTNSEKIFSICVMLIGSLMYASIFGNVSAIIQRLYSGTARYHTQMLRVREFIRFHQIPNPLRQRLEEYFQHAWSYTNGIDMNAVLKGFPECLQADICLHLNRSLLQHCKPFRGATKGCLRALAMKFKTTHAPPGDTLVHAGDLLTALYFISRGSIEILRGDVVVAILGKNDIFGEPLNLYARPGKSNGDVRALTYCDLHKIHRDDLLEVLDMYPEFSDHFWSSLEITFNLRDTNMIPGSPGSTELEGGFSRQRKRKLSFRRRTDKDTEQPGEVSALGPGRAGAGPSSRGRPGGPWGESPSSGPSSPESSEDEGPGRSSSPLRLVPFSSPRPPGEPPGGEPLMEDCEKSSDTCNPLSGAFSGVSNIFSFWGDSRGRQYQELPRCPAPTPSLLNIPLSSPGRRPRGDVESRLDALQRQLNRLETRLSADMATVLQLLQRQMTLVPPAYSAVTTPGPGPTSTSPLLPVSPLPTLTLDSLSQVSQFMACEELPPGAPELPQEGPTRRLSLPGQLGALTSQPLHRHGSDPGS

`CC(C)(CN1CCC(=C2c3ccc(F)cc3COc3ccc(O)cc32)CC1)C(=O)O` [Compound 58a]: in data set [1] (dose 3 mg/kg oral at CT-18), the LUSB turned out to be 5.3 min and the NREM stood at 9.1 min. Further, in data set [1] (dose 10 mg/kg oral at CT-18), the LUSB amounted to 7.6 min and the NREM is -12.5 min.

As for `CC(C)(CN1CCC(=C2c3ccccc3COc3ccccc32)CC1)C(=O)O` [Compound 69a], the LUSB in data set [1] (dose 3 mg/kg oral at CT-18) is 7.1 min; in data set [1] (dose 10 mg/kg oral at CT-18) it was 13.1 min; in data set [1] (dose 30 mg/kg oral at CT-18), 13.5 min. For the same molecule, the NREM is 32.2 min in data set [1] (dose 3 mg/kg oral at CT-18), 32.8 min in data set [1] (dose 10 mg/kg oral at CT-18) and 40 min in data set [1] (dose 30 mg/kg oral at CT-18). Besides, in data set [2] (human, 1 µM, pH 7.4), the “hERG at micromolar (% blocking of the hERG channel)” value turned out to be 6.1% @ 1.

In data set [1] (dose 30 mg/kg oral at CT-18), `CC(C)(CCN1CCC(=C2c3ccc(C(F)(F)F)cc3COc3ccccc32)CC1)C(=O)O` [Compound 64a] gave an LUSB of 12.3 min and an NREM of 33.5 min.

Take `CC(C)(CCN1CCC(=C2c3ccc(Cl)cc3COc3ccccc32)CC1)C(=O)O` [Compound 68a]: the values for the LUSB in data set [1] (dose 3 mg/kg oral at CT-18), in data set [1] (dose 10 mg/kg oral at CT-18) and in data set [1] (dose 30 mg/kg oral at CT-18) were 4.3 min, 7.8 min and 11.9 min, respectively. For the same molecule, the NREM is 20.9 min in data set [1] (dose 3 mg/kg oral at CT-18), 45.9 min in data set [1] (dose 10 mg/kg oral at CT-18) and 50.8 min in data set [1] (dose 30 mg/kg oral at CT-18). Moreover, the “hERG at micromolar (% blocking of the hERG channel)” value in data set [2] is reported as 25.3% @ 10.

In the case of `CC(C)(CN1CCC(=C2c3ccccc3COc3ccc(F)cc32)CC1)C(=O)O` [Compound 53a], the LUSB in data set [1] (dose 1 mg/kg oral at CT-18) came out at 5 min; in data set [1] (dose 3 mg/kg oral at CT-18) it was 17.2 min; in data set [1] (dose 10 mg/kg oral at CT-18) it was 14.4 min; in data set [1] (dose 30 mg/kg oral at CT-18), 11.9 min. For the same molecule, the NREM stood at 14.6 min in data set [1] (dose 1 mg/kg oral at CT-18), 38.6 min in data set [1] (dose 3 mg/kg oral at CT-18), 51.5 min in data set [1] (dose 10 mg/kg oral at CT-18) and 66.3 min in data set [1] (dose 30 mg/kg oral at CT-18).

In data set [1] (dose 30 mg/kg oral at CT-18), `CC(C)(CCN1CCC(=C2c3ccc(O)cc3COc3ccccc32)CC1)C(=O)O` [Compound 63a] returned an LUSB of 4.6 min and an NREM of 9.6 min.

In the case of `O=C(O)C1(CCN2CCC(=C3c4ccccc4COc4ccc(O)cc43)CC2)CC1` [Compound 65b], in data set [1] (dose 10 mg/kg oral at CT-18), the LUSB amounted to 3.9 min and the NREM was -5.7 min.

With `CC(C)(CN1CCC(=C2c3ccc(O)cc3COc3ccc(F)cc32)CC1)C(=O)O` [Compound 60a], in data set [1] (dose 10 mg/kg oral at CT-18), the LUSB stood at 3.7 min and the NREM is -5.2 min.

With `O=C(O)C1(CN2CCC(=C3c4ccc(O)cc4COc4ccccc43)CC2)CC1` [Compound 56b], in data set [1] (dose 30 mg/kg oral at CT-18), the LUSB is -2.9 min and the NREM is -9.9 min.

In data set [1] (dose 30 mg/kg oral at CT-18), `CC(C)(CN1CCC(=C2c3ccc(C(F)(F)F)cc3COc3ccccc32)CC1)C(=O)O` [Compound 54a] had an LUSB of 6.1 min and an NREM of 28.6 min.

For the molecule `CC(C)(CN1CCC(=C2c3ccc(O)cc3COc3ccccc32)CC1)C(=O)O` [Compound 56a], in data set [1] (dose 30 mg/kg oral at CT-18), the LUSB stood at 4.3 min and the NREM is 6.4 min.

In data set [1] (dose 30 mg/kg oral at CT-18), `CC(C)(CCCN1CCC(=C2c3ccccc3COc3ccccc32)CC1)C(=O)O` [Compound 71a] had an LUSB of 3.6 min and an NREM of 8.1 min.

Turning to `Cc1ccc2c(c1)COc1ccccc1C2=C1CCN(CCC(C)(C)C(=O)O)CC1` [Compound 66a], in data set [1] (dose 30 mg/kg oral at CT-18), the LUSB worked out at 8.8 min and the NREM came to 27.8 min.

In data set [1] (dose 30 mg/kg oral at CT-18), `CC(C)(CN1CCC(=C2c3ccccc3COc3ccc(O)cc32)CC1)C(=O)O` [Compound 55a] yielded an LUSB of 2 min and an NREM of 12.8 min.

For the molecule `O=C(O)C1(CN2CCC(=C3c4ccccc4COc4ccc(O)cc43)CC2)CC1` [Compound 55b], in data set [1] (dose 10 mg/kg oral at CT-18), the LUSB was 2.5 min and the NREM is 7.7 min.

In data set [1] (dose 10 mg/kg oral at CT-18), `COc1ccc2c(c1)C(=C1CCN(CC3(C(=O)O)CC3)CC1)c1ccccc1CO2` [Compound 52b] had an LUSB of 2.9 min and an NREM of 7.5 min. In data set [1] (dose 30 mg/kg oral at CT-18), this molecule gave an LUSB of 7.1 min and an NREM of 26.8 min.

As to `O=C(O)CCN1CCC(=C2c3ccccc3COc3ccccc32)CC1` [Compound 69e], the LUSB in data set [1] (dose 3 mg/kg oral at CT-18) came out at 5.6 min; in data set [1] (dose 10 mg/kg oral at CT-18), 9.7 min; in data set [1] (dose 20 mg/kg oral at CT-18) it was 12.3 min. Moreover, the results for the NREM in data set [1] (dose 3 mg/kg oral at CT-18), in data set [1] (dose 10 mg/kg oral at CT-18) and in data set [1] (dose 20 mg/kg oral at CT-18) were 21.2 min, 28.4 min and 54.6 min, respectively. Also, the “hERG at micromolar (% blocking of the hERG channel)” value in data set [2] was −1.4% @ 1.

As for `COc1ccc2c(c1)COc1ccc(OC)cc1C2=C1CCN(CC(C)(C)C(=O)O)CC1` [Compound 10a], the LUSB was 3.1 min in data set [1] (dose 1 mg/kg oral at CT-18), 1.6 min in data set [1] (dose 3 mg/kg oral at CT-18), 4 min in data set [1] (dose 10 mg/kg oral at CT-18) and 6.8 min in data set [1] (dose 30 mg/kg oral at CT-18). Further, the NREM in data set [1] (dose 1 mg/kg oral at CT-18) was -5 min; in data set [1] (dose 3 mg/kg oral at CT-18), -8.9 min; in data set [1] (dose 10 mg/kg oral at CT-18) it was 15.1 min; in data set [1] (dose 30 mg/kg oral at CT-18), 30.9 min.

Consider `Cc1ccc2c(c1)COc1ccccc1C2=C1CCN(CC(C)(C)C(=O)O)CC1` [Compound 57a], for which, in data set [1] (dose 30 mg/kg oral at CT-18), the LUSB was -5.3 min and the NREM was -11 min.

In data set [1] (dose 30 mg/kg oral at CT-18), `COc1ccc2c(c1)C(=C1CCN(CCC(C)(C)C(=O)O)CC1)c1ccccc1CO2` [Compound 67a] showed an LUSB of 6.5 min and an NREM of -11.5 min.

As to `CC(C)(CCN1CCC(=C2c3ccccc3COc3ccc(O)cc32)CC1)C(=O)O` [Compound 65a], in data set [1] (dose 10 mg/kg oral at CT-18), the LUSB is 1.5 min and the NREM is 6.2 min.

As for `CC(C)(CN1CCC(=C2c3ccc(F)cc3COc3ccc(F)cc32)CC1)C(=O)O` [Compound 48a], the LUSB in data set [1] (dose 1 mg/kg oral at CT-18) turned out to be 6.9 min; in data set [1] (dose 3 mg/kg oral at CT-18), 11.2 min; in data set [1] (dose 10 mg/kg oral at CT-18) it was 10 min; in data set [1] (dose 30 mg/kg oral at CT-18), 4.4 min. The NREM was found to be 36.7 min in data set [1] (dose 1 mg/kg oral at CT-18), 50.8 min in data set [1] (dose 3 mg/kg oral at CT-18), 58.6 min in data set [1] (dose 10 mg/kg oral at CT-18) and 39.4 min in data set [1] (dose 30 mg/kg oral at CT-18).

In the case of `COc1ccc2c(c1)C(=C1CCN(CC(C)(C)C(=O)O)CC1)c1ccccc1CO2` [Compound 52a], the LUSB in data set [1] (dose 3 mg/kg oral at CT-18) turned out to be 8.2 min; in data set [1] (dose 10 mg/kg oral at CT-18), 5.7 min; in data set [1] (dose 30 mg/kg oral at CT-18), 10.1 min. Besides, the figures for the NREM in data set [1] (dose 3 mg/kg oral at CT-18), in data set [1] (dose 10 mg/kg oral at CT-18) and in data set [1] (dose 30 mg/kg oral at CT-18) were 13.6 min, 26.8 min and 37.2 min, respectively.

In the case of `O=C(O)C1(CCN2CCC(=C3c4ccc(O)cc4COc4ccccc43)CC2)CC1` [Compound 63b], in data set [1] (dose 10 mg/kg oral at CT-18), the LUSB was 2.1 min and the NREM is -4.8 min.
